Patent US7713994B2 (Wyeth LLC, priority 2005, dated 2010)
Read-outs that look alike come from different tables or passages of the source.

Assays:
cyclin D1/cdk 4 enzyme = molecular target: T1, cyclin D1/cdk 4 enzyme (Homo sapiens, UniProt P11802); assay: CDK4 ELISA kinase assay (phospho-Rb ser 795 detection); format: biochemical
T1 construct: made in house; host or cells: Sf9 insect cells, recombinant baculovirus
Procedure, shortened: (§1)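 Sf9-derived cyclin/CDK, 200 μM ATP, immobilized GST-Rb; 30° C/1 h. Detection: phospho-Ser795 Ab, HRP, TMB, OD450.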

cyclin E/CDK2 enzyme = molecular target: T2, cyclin E/CDK2 enzyme (Homo sapiens, UniProt P24941); assay: CDK2 ELISA kinase assay (phospho-Rb ser 795 detection); format: biochemical
T2 construct: made in house; host or cells: Sf9 insect cells, recombinant baculovirus
Procedure, shortened: as §1

cyclin B/CDK1 enzyme = molecular target: T3, cyclin B/CDK1 enzyme (Homo sapiens, UniProt P06493); assay: CDK1 ELISA kinase assay (phospho-Rb ser 795 detection); format: biochemical
T3 construct: purchased New England BioLabs; host or cells: Sf9 insect cells, recombinant baculovirus
T3 sequence (P06493 whole entry): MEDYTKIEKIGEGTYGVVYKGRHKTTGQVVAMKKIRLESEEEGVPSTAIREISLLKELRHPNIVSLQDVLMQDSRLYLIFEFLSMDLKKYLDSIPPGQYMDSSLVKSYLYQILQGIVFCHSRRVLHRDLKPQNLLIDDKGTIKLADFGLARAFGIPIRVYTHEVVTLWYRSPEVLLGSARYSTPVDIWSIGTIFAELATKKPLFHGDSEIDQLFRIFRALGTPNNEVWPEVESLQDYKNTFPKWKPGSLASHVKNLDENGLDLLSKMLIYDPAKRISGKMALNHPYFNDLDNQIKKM
T3 sequence (P14635 whole entry partner): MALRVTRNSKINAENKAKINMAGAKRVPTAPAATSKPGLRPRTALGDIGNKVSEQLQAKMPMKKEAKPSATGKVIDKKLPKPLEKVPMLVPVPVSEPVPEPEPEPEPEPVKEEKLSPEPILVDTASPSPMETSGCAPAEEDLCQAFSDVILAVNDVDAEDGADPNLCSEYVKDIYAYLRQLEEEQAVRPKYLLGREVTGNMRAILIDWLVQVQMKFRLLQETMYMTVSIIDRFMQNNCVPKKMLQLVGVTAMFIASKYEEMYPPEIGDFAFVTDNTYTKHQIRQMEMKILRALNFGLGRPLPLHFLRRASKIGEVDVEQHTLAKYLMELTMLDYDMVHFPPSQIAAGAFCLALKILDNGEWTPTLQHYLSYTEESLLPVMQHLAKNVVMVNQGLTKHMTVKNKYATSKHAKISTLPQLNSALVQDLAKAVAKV
Procedure, shortened: as §1

BT474 = assay: Cytotoxicity assay (SRB), BT474; format: cell-based
Procedure, shortened: (§2)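 Cells grown in RPMI 1640 with 5% FBS were treated with compound for three days (HCT-116, LoVo, MCF-7) or six days (BT474). Viable cell mass was quantified by sulforhodamine B staining of TCA-fixed protein and read at 540 nm.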

HCT-116 = assay: Cytotoxicity assay (SRB), HCT-116; format: cell-based; conditions: HCT116 cells, SRB, read-out: In Vitro Cellular Activity IC50 HCT116
Procedure, shortened: as §2

LoVo = assay: Cytotoxicity assay (SRB), LoVo; format: cell-based; conditions: LoVo cells, SRB, read-out: In Vitro Cellular Activity IC50 LOVO
Procedure, shortened: as §2

MCF-7 = assay: Cytotoxicity assay (SRB), MCF-7; format: cell-based; conditions: MCF-7 cells, SRB, read-out: In Vitro Cellular Activity IC50 MCF-7
Procedure, shortened: as §2

[1] = I.V. and P.O. Dosing in Mice; format: in vivo; conditions: for AUC(0-inf) / bioavailability: mouse, in vivo; for bioavailability: po 50 mg/kg vs i.v. 2 mg/kg
SK-UT-1B = assay: In Vitro Cellular Activity (Table III), SK-UT-1B; format: cell-based; conditions: SK-UT-1B cells
[2] = In Vitro Enzyme Assays, 200 μM ATP, read-out: CDK4 IC50
[3] = In Vitro Enzyme Assays, read-out: CDK2 IC50
[4] = In Vitro Enzyme Assays, read-out: CDK1 IC50
[5] = Homo sapiens, BT-474, 144 h, BT474 cells, SRB, 6 days; read-out: In Vitro Cellular Activity IC50 BT474
[6] = Homo sapiens, HCT-116, 72 h, three days
[7] = Homo sapiens, LoVo, 72 h, three days
[8] = Homo sapiens, MCF7, 72 h, three days
[9] = iv, 2 mg/kg, dose i.v. 2 mg/kg, read-out: aucinf obs (i.v.)
[10] = po, 50 mg/kg, dose po 50 mg/kg, read-out: aucinf obs (po)
[11] = In Vitro Enzyme Assay, cyclin D1/cdk 4, read-out: CDK4 IC50
[12] = In Vitro Enzyme Assay, cyclin E/CDK2, read-out: CDK2 IC50
[13] = In Vitro Enzyme Assay, cyclin B/CDK1, read-out: CDK1 IC50
[14] = Homo sapiens, BT-474, 144 h, BT474 cells, 6 days, SRB; read-out: In Vitro Cellular Activity IC50 BT474
[15] = Homo sapiens, HCT-116, 72 h, 3 days
[16] = Homo sapiens, LoVo, 72 h, 3 days
[17] = Homo sapiens, MCF7, 72 h, 3 days

T1 sequence (P11802 whole entry, species assumed): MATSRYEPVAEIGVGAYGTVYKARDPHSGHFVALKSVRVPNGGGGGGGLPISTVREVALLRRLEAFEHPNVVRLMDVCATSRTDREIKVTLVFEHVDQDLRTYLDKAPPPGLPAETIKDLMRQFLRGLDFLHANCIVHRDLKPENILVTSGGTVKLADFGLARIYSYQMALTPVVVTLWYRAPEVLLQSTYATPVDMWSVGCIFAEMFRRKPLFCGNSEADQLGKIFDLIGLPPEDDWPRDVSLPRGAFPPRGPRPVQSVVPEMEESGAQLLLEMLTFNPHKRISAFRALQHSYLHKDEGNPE
T1 sequence (P24385 whole entry partner, species assumed): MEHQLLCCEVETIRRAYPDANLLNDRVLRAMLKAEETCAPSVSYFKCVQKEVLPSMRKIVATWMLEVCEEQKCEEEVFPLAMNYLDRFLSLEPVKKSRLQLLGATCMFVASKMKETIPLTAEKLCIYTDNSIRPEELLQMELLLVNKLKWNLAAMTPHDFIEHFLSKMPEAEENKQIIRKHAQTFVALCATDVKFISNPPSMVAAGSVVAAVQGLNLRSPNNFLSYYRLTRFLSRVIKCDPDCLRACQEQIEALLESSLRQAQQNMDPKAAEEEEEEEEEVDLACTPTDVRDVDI

Which IC50 (cyclin D1/cdk 4 enzyme; [2]) does the source give for `CN1CCN(c2ccc(N/C=C3\C(=O)NC(=O)c4ccc(-c5ccsc5)cc43)cc2)CC1` [Example 107, (4Z)-4-({[4-(4-Methylpiperazin-1-yl)phenyl]amino}methylene)-6-thien-3-ylisoquinoline-1,3(2H,4H)-dione] here?
Its IC50 is 0.08 µM.

And the IC50 (cyclin E/CDK2 enzyme; [3])?
The IC50 was > 50 µM.

And the IC50 (cyclin B/CDK1 enzyme; [4])?
The IC50 was > 50 µM.

And the IC50 (BT474; [5])?
The IC50 was 2.5 µM.

And the IC50 (HCT-116; [6])?
The IC50 was 1.4 µM.

And the IC50 (LoVo; [7])?
The IC50 was 2.3 µM.

What about the IC50 (MCF-7; [8]) of the same compound?
The IC50 was 2.3 µM.

What about the melting point of the same compound?
Its melting point is 224 to 226 °C.

What about the Cl_obs ([1]; dose i.v. 2 mg/kg) of the same compound?
The Cl_obs was 37 mL/min/kg.

What about the Vss_obs ([1]; dose i.v. 2 mg/kg) of the same compound?
The Vss_obs was 11 L/kg.

What about the HL_Lambda_z ([1]; dose po 50 mg/kg) of the same compound?
Its HL_Lambda_z is 7.4 h.

What about the AUC(0-inf) [1, 9] of the same compound?
The AUC(0-inf) was 901 ng·h/mL.

And the AUC(0-inf) [1, 10]?
Its AUC(0-inf) is 4100 ng·h/mL.

And the bioavailability ([1]; po, 50 mg/kg)?
Its bioavailability is 18.2%.

With `O=C1NC(=O)c2ccc(I)cc2/C1=C/NCc1cc(O)c(-c2ccccc2)cn1` [Example 524, (4Z)-{[(4-Hydroxy-5-phenyl-pyridin-2-ylmethyl)-amino]-methylene}-6-iodo-4H-isoquinoline-1,3-dione] as the compound, how does the IC50 (cyclin D1/cdk 4 enzyme; [11]) read?
Its IC50 is 0.04 µM.

And the IC50 (cyclin E/CDK2 enzyme; [12])?
Its IC50 is 2.2 µM.

And the IC50 (cyclin B/CDK1 enzyme; [13])?
Its IC50 is 27.9 µM.

What about the IC50 (BT474; [14]) of the same compound?
The IC50 was 0.03 µM.

And the IC50 (HCT-116; [15])?
The IC50 was 0.11 µM.

What about the IC50 (LoVo; [16]) of the same compound?
The IC50 was 0.12 µM.

And the IC50 (MCF-7; [17])?
Its IC50 is 0.89 µM.

And the melting point?
Its melting point is 292 to 293 °C (dec.).

What about the Cl_obs ([1]; dose i.v. 2 mg/kg) of the same compound?
The Cl_obs was 35 mL/min/kg.

What about the Vss_obs ([1]; dose i.v. 2 mg/kg) of the same compound?
Its Vss_obs is 2.4 L/kg.

What about the AUC(0-inf) [1, 9] of the same compound?
The AUC(0-inf) was 952 ng·h/mL.

What about the bioavailability ([1]; po, 50 mg/kg) of the same compound?
The bioavailability was 0%.

With `O=C1NC(=O)c2ccc(I)cc2/C1=C/NCc1cc(O)c(-c2ccoc2)cn1` [Example 527, (4Z)-{[(5-Furan-3-yl-4-hydroxy-pyridin-2-ylmethyl)-amino]-methylene}-6-iodo-4H-isoquinoline-1,3-dione] as the compound, how does the IC50 (cyclin D1/cdk 4 enzyme; [11]) read?
The IC50 was 0.03 µM.

And the IC50 (cyclin E/CDK2 enzyme; [12])?
The IC50 was 2.3 µM.

What about the IC50 (cyclin B/CDK1 enzyme; [13]) of the same compound?
Its IC50 is 13.5 µM.

And the IC50 (BT474; [14])?
Its IC50 is 0.09 µM.

And the IC50 (HCT-116; [15])?
The IC50 was 0.55 µM.

And the IC50 (LoVo; [16])?
Its IC50 is 0.49 µM.

And the IC50 (MCF-7; [17])?
The IC50 was 2.7 µM.

And the melting point?
The melting point was 213 to 228 °C (dec.).

And the Cl_obs ([1]; dose i.v. 2 mg/kg)?
The Cl_obs was 5 mL/min/kg.

What about the Vss_obs ([1]; dose i.v. 2 mg/kg) of the same compound?
The Vss_obs was 0.5 L/kg.

What about the HL_Lambda_z ([1]; dose po 50 mg/kg) of the same compound?
Its HL_Lambda_z is 3.4 h.

And the AUC(0-inf) [1, 9]?
The AUC(0-inf) was 6060 ng·h/mL.

What about the AUC(0-inf) [1, 10] of the same compound?
Its AUC(0-inf) is 1400 ng·h/mL.

What about the bioavailability ([1]; po, 50 mg/kg) of the same compound?
Its bioavailability is 0.9%.

Which IC50 (cyclin E/CDK2 enzyme; [12]) does the source give for `CC(C)(C)c1ccc2c(c1)/C(=C/NCc1cc(O)c(-c3ccccc3)cn1)C(=O)NC2=O` [Example 531, 6-tert-Butyl-4-{[(4-hydroxy-5-phenyl-pyridin-2-ylmethyl)-amino]-methylene}-4H-isoquinoline-1,3-dione] here?
Its IC50 is 2.6 µM.

And the IC50 (cyclin B/CDK1 enzyme; [13])?
The IC50 was 16.3 µM.

What about the IC50 (BT474; [14]) of the same compound?
Its IC50 is 0.04 µM.

What about the IC50 (HCT-116; [15]) of the same compound?
Its IC50 is 0.15 µM.

What about the IC50 (LoVo; [16]) of the same compound?
Its IC50 is 0.1 µM.

What about the IC50 (MCF-7; [17]) of the same compound?
The IC50 was 0.7 µM.

And the melting point?
The melting point was 195 to 218 °C (dec.).

What about the Cl_obs ([1]; dose i.v. 2 mg/kg) of the same compound?
Its Cl_obs is 23 mL/min/kg.

And the Vss_obs ([1]; dose i.v. 2 mg/kg)?
The Vss_obs was 0.9 L/kg.

What about the HL_Lambda_z ([1]; dose po 50 mg/kg) of the same compound?
Its HL_Lambda_z is 5.2 h.

And the AUC(0-inf) [1, 9]?
The AUC(0-inf) was 1450 ng·h/mL.

What about the AUC(0-inf) [1, 10] of the same compound?
Its AUC(0-inf) is 879 ng·h/mL.

And the bioavailability ([1]; po, 50 mg/kg)?
Its bioavailability is 2.5%.

What does the source list for `CCCOc1cnc(CN/C=C2\C(=O)NC(=O)c3ccc(C4CCCC4)cc32)cc1O` [Example 538, 6-Cyclopentyl-4-{[(4-hydroxy-5-propoxy-pyridin-2-ylmethyl)-amino]-methylene}-4H-isoquinoline-1,3-dione]?
IC50 (cyclin E/CDK2 enzyme; [12]): 1.2 µM; IC50 (BT474; [14]): 0.06 µM; IC50 (HCT-116; [15]): 0.15 µM; IC50 (LoVo; [16]): 0.07 µM; IC50 (MCF-7; [17]): 0.3 µM; melting point: 263 to 266 °C (dec.); Cl_obs ([1]; dose i.v. 2 mg/kg): 5 mL/min/kg; Vss_obs ([1]; dose i.v. 2 mg/kg): 0.2 L/kg; HL_Lambda_z ([1]; dose po 50 mg/kg): 7.1 h; AUC(0-inf) [1, 9]: 6630 ng·h/mL; AUC(0-inf) [1, 10]: 1040 ng·h/mL; bioavailability ([1]; po, 50 mg/kg): 0.63%

Which IC50 (cyclin D1/cdk 4 enzyme; [2]) does the source give for `O=C1NCc2ccccc2/C1=C/Nc1ccc(-c2c[nH]cn2)cc1` [compound 3] here?
The IC50 was 42 µM.

And the IC50 (cyclin E/CDK2 enzyme; [3])?
Its IC50 is 13 µM.

And the IC50 (cyclin B/CDK1 enzyme; [4])?
Its IC50 is > 32 µM.

What about the IC50 (BT474; [5]) of the same compound?
Its IC50 is 20 µM.

What about the IC50 (HCT-116; [6]) of the same compound?
Its IC50 is 7.8 µM.

What about the IC50 (LoVo; [7]) of the same compound?
The IC50 was 12 µM.

And the IC50 (MCF-7; [8])?
The IC50 was 11 µM.

And the IC50 (SK-UT-1B; Homo sapiens, Skut1B)?
Its IC50 is 4.4 µM.

Which IC50 (cyclin B/CDK1 enzyme; [4]) does the source give for `CN1CCN(c2ccc(N/C=C3\C(=O)NC(=O)c4ccccc43)cc2)CC1` [compound 4] here?
Its IC50 is > 28 µM.

And the IC50 (BT474; [5])?
The IC50 was 18 µM.

And the IC50 (HCT-116; [6])?
Its IC50 is 9.1 µM.

What about the IC50 (LoVo; [7]) of the same compound?
The IC50 was 13 µM.

What about the IC50 (MCF-7; [8]) of the same compound?
The IC50 was 5.5 µM.

What about the IC50 (SK-UT-1B; Homo sapiens, Skut1B) of the same compound?
Its IC50 is 12.7 µM.

Which IC50 (cyclin D1/cdk 4 enzyme; [2]) does the source give for `O=C1NC(=O)c2ccccc2/C1=C/Nc1ccc2cn[nH]c2c1` [compound 7] here?
Its IC50 is 9.5 µM.

And the IC50 (cyclin E/CDK2 enzyme; [3])?
The IC50 was 5.6 µM.

And the IC50 (cyclin B/CDK1 enzyme; [4])?
Its IC50 is > 33 µM.

What about the IC50 (HCT-116; [6]) of the same compound?
The IC50 was 6.57 µM.

And the IC50 (MCF-7; [8])?
The IC50 was 11.2 µM.

What about the IC50 (SK-UT-1B; Homo sapiens, Skut1B) of the same compound?
Its IC50 is 4.3 µM.

With “(4Z)-4-[({3-Chloro-4-{(4chlorobenzyl)oxy]phenyl}amino)methylene]isoquinoline-1,3(2H,4H-dione [Example 15]” as the compound, how does the IC50 (BT474; BT474 cells, SRB, 6 days; read-out: In Vitro Cellular Activity IC50 BT474) read?
The IC50 was > 50 µM.

What about the IC50 (HCT-116; three days) of the same compound?
The IC50 was 10.3 µM.

What about the IC50 (LoVo; three days) of the same compound?
Its IC50 is 50 µM.

And the IC50 (MCF-7; three days)?
Its IC50 is 28 µM.

What about the IC50 (SK-UT-1B) of the same compound?
The IC50 was 11.6 µM.
